# In ChEMBL document CHEMBL6134888, “Challenging the "Undruggable"─Targeting STAT3 but Identifying Potent TrkA-Targeted Inhibitors” (J Med Chem, 2025):
# Tests used:
# [1] = Metabolic stability in human liver microsome assessed as intrinsic clearance measured up to 60 mins by HPLC-MS/MS analysis; type: ADME; details: liver microsomes, read-out: CLH
# [2] = Plasma protein binding in human; type: ADME, cell-free; details: read-out: PPB (converted)
# [3] = Metabolic stability in human liver microsome assessed as half life measured up to 60 mins by HPLC-MS/MS analysis; type: ADME; details: liver microsomes
# [4] = Apparent permeability of compound across apical to basolateral side in human Caco-2 cells; type: ADME, cell-based
# [5] = biological target: T1, Tyrosine-protein kinase JAK2 (Homo sapiens, UniProt O60674); assay: Inhibition of JAK2 (unknown origin) by Z-LYTE Kinase assay
# MDA-MB-231 [6] = assay: Cytotoxicity against human MDA-MB-231 cells assessed as cell viability at 100 uM incubated for 72 hrs by resazurin based analysis relative to control; type: functional; details: read-out: Activity
# [7] = biological target: BDNF/NT-3 growth factors receptor (Homo sapiens, UniProt Q16620); assay: Binding affinity to TRKB (unknown origin) assessed as dissociation constant by KINOMEscan assay
# [8] = biological target: T2, Proto-oncogene tyrosine-protein kinase Src (Homo sapiens, UniProt P12931); assay: Inhibition of SRC (unknown origin) by Z-LYTE Kinase assay
# LS174T [9] = assay: Cytotoxicity against human LS174T cells assessed as cell viability at 100 uM incubated for 72 hrs by resazurin based analysis relative to control; type: functional; details: read-out: Activity
# [10] = biological target: T3, Receptor-type tyrosine-protein kinase FLT3 (Homo sapiens, UniProt P36888); assay: Inhibition of FLT3 (unknown origin)
# T3 sequence (P36888 whole entry): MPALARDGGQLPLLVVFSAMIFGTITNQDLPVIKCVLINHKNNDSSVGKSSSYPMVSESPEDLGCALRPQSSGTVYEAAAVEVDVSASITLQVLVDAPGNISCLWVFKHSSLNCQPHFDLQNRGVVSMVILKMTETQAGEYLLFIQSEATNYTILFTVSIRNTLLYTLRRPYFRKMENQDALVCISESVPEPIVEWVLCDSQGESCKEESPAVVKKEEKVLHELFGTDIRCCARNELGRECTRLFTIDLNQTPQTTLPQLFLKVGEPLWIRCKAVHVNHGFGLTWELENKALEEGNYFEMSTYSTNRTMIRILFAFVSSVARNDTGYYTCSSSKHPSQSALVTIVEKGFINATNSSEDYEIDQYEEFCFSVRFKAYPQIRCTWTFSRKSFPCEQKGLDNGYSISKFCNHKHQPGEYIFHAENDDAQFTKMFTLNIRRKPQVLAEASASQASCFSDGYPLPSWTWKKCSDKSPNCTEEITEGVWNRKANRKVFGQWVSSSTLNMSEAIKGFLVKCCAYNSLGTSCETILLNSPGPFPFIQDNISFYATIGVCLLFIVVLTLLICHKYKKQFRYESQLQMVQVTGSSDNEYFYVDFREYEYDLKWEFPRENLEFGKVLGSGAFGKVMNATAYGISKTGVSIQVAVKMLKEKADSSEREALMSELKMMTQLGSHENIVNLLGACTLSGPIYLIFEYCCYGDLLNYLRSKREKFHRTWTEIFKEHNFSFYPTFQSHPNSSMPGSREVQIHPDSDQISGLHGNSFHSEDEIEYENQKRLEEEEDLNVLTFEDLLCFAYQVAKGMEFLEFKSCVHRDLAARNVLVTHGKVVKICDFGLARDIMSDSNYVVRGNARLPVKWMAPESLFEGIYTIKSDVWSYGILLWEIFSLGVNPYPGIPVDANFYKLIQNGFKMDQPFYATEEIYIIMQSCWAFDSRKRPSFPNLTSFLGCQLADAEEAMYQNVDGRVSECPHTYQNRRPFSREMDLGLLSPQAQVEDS
# [11] = biological target: T4, Serine/threonine-protein kinase Nek2 (Homo sapiens, UniProt P51955); assay: Inhibition of NEK2 (unknown origin)
# T4 sequence (P51955 whole entry): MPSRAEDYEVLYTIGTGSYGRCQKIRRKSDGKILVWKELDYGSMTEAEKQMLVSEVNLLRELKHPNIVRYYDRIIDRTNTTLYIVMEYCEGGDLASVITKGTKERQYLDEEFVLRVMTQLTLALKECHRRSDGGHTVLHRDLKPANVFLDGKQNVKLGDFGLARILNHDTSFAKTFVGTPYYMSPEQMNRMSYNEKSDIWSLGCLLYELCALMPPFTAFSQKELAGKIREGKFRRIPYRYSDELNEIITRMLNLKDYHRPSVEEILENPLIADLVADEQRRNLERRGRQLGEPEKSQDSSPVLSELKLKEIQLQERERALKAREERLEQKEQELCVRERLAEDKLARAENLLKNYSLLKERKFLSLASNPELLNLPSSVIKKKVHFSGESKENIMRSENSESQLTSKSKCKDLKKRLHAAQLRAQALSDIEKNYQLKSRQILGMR
# KM12 = assay: cells; details: Homo sapiens, KM12, 72 h
# Description: Cytotoxicity against human KM12 cells assessed as inhibition of cell viability incubated for 72 hrs by resazurin based analysis
# [12] = biological target: T1, Tyrosine-protein kinase JAK2; assay: Binding affinity to JAK2 (unknown origin) assessed as dissociation constant
# MDA-MB-231 [13] = assay: Cytotoxicity against human MDA-MB-231 cells assessed as effect on cell viability incubated for 72 hrs by resazurin based analysis; details: MDA-MB-231, 72 h
# [14] = biological target: Tyrosine-protein kinase ABL1 (Homo sapiens, UniProt P00519); assay: Binding affinity to ABL1 (unknown origin) assessed as dissociation constant
# [15] = biological target: MAP kinase-activated protein kinase 2 (Homo sapiens, UniProt P49137); assay: Inhibition of MK2 (unknown origin)
# [16] = biological target: T5, High affinity nerve growth factor receptor (Homo sapiens, UniProt P04629); assay: Binding affinity to TRKA (unknown origin) assessed as dissociation constant by KINOMEscan assay
# LS174T [17] = assay: Cytotoxicity against human LS174T cells assessed as effect on cell viability incubated for 72 hrs by resazurin based analysis
# [18] = biological target: T5, High affinity nerve growth factor receptor; assay: Binding affinity to TRKA (unknown origin) assessed as dissociation constant
# [19] = biological target: T2, Proto-oncogene tyrosine-protein kinase Src; assay: Binding affinity to SRC (unknown origin) assessed as dissociation constant
# T1 sequence (O60674 whole entry): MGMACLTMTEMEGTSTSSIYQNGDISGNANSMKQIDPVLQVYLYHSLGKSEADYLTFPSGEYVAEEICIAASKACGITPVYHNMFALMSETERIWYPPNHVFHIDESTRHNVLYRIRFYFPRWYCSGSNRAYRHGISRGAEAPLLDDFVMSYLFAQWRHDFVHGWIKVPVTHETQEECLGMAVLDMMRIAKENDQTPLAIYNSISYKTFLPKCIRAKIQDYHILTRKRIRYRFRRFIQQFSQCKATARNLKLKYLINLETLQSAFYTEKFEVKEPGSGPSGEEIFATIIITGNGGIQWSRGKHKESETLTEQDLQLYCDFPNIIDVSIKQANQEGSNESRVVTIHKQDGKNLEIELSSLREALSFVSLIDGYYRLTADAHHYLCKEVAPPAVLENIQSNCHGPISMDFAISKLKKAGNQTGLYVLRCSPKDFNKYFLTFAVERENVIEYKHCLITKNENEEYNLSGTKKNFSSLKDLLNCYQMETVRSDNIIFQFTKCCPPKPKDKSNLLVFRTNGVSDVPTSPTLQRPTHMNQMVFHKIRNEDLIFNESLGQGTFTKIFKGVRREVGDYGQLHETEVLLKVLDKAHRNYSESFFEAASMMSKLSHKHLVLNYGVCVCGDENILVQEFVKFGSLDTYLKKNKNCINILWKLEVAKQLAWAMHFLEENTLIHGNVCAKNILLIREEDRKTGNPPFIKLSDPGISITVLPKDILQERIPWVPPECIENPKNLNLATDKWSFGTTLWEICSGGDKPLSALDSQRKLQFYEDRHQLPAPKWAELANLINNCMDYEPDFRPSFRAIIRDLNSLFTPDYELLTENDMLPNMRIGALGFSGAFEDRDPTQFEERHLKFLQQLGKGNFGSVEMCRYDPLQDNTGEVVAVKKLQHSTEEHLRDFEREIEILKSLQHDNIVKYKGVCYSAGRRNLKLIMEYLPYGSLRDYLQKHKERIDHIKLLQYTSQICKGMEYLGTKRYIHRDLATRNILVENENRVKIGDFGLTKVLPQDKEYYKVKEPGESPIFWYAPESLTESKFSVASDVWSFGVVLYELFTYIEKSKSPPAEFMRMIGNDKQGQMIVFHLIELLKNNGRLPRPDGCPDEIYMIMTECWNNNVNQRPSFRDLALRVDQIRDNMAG
# BDNF/NT-3 growth factors receptor, sequence (Q16620 whole entry): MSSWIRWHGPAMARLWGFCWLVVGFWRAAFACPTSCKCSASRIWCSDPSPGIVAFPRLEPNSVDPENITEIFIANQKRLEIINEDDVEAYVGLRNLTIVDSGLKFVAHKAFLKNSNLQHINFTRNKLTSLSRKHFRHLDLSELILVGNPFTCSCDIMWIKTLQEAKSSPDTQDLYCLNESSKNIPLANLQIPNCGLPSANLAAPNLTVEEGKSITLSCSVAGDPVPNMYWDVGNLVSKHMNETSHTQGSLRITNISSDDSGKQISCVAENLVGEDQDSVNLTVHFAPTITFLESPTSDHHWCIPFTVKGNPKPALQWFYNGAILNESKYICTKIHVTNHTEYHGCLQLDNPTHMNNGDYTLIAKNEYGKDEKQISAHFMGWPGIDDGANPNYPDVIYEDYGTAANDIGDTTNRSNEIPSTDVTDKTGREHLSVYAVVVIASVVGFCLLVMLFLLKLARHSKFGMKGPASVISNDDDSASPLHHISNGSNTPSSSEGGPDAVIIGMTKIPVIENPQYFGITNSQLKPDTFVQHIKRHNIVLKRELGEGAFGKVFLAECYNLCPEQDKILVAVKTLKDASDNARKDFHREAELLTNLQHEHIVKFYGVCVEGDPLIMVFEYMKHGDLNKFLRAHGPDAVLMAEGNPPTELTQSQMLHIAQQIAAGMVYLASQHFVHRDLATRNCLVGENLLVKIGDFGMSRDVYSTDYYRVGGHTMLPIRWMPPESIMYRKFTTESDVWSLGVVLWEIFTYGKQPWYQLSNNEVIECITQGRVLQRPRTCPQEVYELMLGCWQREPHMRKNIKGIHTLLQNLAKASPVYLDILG
# T5 sequence (P04629 whole entry): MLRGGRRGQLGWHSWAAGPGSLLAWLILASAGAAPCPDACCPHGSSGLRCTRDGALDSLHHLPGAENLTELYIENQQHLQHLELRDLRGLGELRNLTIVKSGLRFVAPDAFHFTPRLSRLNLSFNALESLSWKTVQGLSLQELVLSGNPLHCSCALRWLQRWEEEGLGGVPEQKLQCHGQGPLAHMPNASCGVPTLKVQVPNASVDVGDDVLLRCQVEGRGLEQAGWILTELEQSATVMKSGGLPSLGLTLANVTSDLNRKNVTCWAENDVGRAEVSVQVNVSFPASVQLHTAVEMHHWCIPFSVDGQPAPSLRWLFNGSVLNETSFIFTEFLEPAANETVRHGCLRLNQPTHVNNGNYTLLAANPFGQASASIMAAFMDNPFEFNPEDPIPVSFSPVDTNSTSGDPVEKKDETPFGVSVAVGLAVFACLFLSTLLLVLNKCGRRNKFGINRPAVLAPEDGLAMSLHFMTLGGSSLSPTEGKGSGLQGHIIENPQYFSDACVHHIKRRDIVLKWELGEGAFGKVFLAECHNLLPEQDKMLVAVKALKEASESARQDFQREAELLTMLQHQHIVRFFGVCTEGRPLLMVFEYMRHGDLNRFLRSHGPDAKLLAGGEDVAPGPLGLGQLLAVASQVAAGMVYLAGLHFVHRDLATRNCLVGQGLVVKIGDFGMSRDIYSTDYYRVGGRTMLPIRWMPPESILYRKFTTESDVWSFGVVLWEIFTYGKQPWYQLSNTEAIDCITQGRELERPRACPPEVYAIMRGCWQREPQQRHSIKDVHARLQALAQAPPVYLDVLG
# T2 sequence (P12931 2-536 limits assumed): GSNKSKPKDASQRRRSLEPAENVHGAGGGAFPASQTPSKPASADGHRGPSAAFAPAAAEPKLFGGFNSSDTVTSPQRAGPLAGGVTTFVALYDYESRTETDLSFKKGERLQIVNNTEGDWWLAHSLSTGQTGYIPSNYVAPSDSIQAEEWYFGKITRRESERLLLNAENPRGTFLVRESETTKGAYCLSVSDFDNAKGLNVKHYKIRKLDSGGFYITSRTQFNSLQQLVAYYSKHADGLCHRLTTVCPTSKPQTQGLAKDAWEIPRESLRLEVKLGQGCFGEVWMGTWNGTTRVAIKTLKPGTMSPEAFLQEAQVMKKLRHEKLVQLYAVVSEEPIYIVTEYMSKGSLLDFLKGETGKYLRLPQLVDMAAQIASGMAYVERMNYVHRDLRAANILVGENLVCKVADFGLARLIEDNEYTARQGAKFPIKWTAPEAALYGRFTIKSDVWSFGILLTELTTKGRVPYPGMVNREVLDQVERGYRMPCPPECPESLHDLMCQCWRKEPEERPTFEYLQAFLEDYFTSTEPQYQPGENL
# Tyrosine-protein kinase ABL1, sequence (P00519 whole entry): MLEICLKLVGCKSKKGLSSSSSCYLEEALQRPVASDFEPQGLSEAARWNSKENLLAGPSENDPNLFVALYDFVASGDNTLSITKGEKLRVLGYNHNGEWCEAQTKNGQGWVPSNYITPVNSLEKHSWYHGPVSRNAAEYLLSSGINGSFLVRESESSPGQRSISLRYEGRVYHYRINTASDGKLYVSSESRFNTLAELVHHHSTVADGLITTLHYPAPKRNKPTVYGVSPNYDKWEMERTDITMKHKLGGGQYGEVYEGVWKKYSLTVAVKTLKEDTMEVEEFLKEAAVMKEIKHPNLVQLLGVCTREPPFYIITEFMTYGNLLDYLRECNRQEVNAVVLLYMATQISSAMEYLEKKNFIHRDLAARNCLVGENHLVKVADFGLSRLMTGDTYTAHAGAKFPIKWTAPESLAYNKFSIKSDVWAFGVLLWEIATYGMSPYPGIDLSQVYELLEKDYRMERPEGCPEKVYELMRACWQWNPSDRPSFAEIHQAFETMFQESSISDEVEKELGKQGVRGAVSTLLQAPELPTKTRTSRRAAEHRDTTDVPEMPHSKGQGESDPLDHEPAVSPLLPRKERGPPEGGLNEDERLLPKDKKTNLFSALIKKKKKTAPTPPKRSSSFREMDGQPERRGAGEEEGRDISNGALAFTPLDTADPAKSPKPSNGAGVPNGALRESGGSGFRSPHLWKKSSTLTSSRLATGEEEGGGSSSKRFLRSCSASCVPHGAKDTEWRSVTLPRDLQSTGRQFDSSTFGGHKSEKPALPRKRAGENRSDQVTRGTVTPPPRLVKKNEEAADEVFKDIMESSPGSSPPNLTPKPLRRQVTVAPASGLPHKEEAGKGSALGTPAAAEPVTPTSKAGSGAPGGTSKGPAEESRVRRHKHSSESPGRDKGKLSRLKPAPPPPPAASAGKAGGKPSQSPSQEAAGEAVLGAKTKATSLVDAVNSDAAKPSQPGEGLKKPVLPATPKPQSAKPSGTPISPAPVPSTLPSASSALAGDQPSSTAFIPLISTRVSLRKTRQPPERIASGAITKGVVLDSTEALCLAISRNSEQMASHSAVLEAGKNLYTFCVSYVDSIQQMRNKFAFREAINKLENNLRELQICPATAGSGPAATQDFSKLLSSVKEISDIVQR
# MAP kinase-activated protein kinase 2, sequence (P49137 whole entry): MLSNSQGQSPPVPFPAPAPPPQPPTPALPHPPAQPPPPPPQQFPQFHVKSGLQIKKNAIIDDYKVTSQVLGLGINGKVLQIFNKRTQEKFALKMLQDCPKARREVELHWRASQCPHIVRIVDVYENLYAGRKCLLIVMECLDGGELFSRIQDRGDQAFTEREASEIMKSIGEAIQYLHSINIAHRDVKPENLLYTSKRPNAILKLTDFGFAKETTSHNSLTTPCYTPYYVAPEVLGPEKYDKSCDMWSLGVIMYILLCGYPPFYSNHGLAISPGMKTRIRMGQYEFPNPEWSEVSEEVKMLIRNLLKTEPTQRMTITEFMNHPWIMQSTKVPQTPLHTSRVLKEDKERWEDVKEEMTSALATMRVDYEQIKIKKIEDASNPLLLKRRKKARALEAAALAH
SMILES,microsomal CLint [1],fraction unbound [2],half-life [3],Papp A→B [4],IC50 [5],viability at 100 µM (MDA-MB-231 [6]),Kd [7],IC50 [8],viability at 100 µM (LS174T [9]),IC50 [10],IC50 [11],IC50 (KM12),Kd [12],IC50 (MDA-MB-231 [13]),Kd [14],IC50 [15],Kd [16],IC50 (LS174T [17]),Kd [18],Kd [19]
CC(=O)Nc1cccc(-c2cnc(N)c(N[C@H](C)c3ccccc3)n2)c1,66.2 µL/min/mg,0.043,1.75 h,8 ×10⁻⁶ cm/s,177 nM,,,,,,,,,,,,,,,
CC(Nc1nc(-c2cccnc2)cnc1N)c1ccccc1 (racemic),,,,,663 nM,43%,180 nM,4520 nM,83%,,,,,,,,,,,
CC(Nc1nc(-c2cccc(N(C)C)c2)cnc1N)c1ccccc1 (racemic),177 µL/min/mg,0.004,0.653 h,,,,150 nM,,,70 nM,870 nM,< 300 nM,1100 nM,> 10000 nM,5300 nM,750 nM,52 nM,> 10000 nM,36 nM,640 nM
